Experimental data taken from US12427212B2, “Nectin-4 binding miniproteins, conjugates and uses thereof” (Aktis Oncology, Inc., priority 2023, dated 2025).
Bridges are numbered along the chain shown (N, C = ends). Primed or numbered codes have the meaning given here. [ ]: non-standard residue; d: D form. The star is where a group is joined. DOTA = O=C(O)CN1CCN(CC(=O)O)CCN(CC(=O)*)CCN(CC(=O)O)CC1; Biotin = O=C1N[C@H]2[C@H](CS[C@H]2CCCCC(=O)*)N1; Lys(Me3) = C[N+](C)(C)CCCC[C@H](N)C(=O)O; Lys(iPr) = CC(C)NCCCC[C@H](N)C(=O)O; Lys(Me2) = CN(C)CCCC[C@H](N)C(=O)O; PEG4 = NCCOCCOCCOCCOCCC(=O)O; PEG4″ = 4(ethylene glycol)

Assays:
in vivo = settings: Sprague Dawley, rat, iv
Procedure: To begin, double jugular vein-cannulated Sprague Dawley rats were dosed with bolus intravenous injections of miniproteins (0.03-0.3 mg/kg) and FITC-sinistrin. Nine blood collection timepoints were taken from 0-2 h, processed to plasma with K2 EDTA, and were frozen for subsequent bioanalysis. Plasma miniprotein concentrations were measured by LC-MS/MS. To control for inter-animal renal clearance differences, and to compare with glomerular filtration rate (GFR), the miniprotein was co-formulated with a molecular marker of GFR, FITC-sinistrin (FS) (Pill et al., 2005). Plasma FITC-sinistrin was measured fluorometrically. All unknown sample measurements were interpolated against known authentic standards spiked into normal rat plasma to calculate concentration. Finally, non-compartmental analysis was performed to estimate plasma pharmacokinetic parameters.

[1] = tested on: Opossum kidney proximal tubule cells; assay: Proximal tubule epithelial cell uptake assay; assay type: cell-based; settings: for % Uptake of C306: Table 10B, modified lysine miniproteins; for % Uptake of C306 / % Uptake of C306 (Control): relative to control miniprotein C306; for % Uptake of C306 (Control): Table 10A, mean percent uptake in opossum kidney cells
Procedure: FIG. 8 is a bar graph of the percent uptake of exemplary miniproteins tested at 20 µM in a proximal tubule epithelial cell assay vs 20 μM control peptide set at 100%. […]
Opossum kidney proximal tubule cells were plated in the upper chamber of 24-well transwell plates containing 600 μL of growth media in the lower chamber and were incubated overnight at 37° C., in 5% CO2. The following day, the media was changed, and cells were incubated an additional 24 h with orbital shaking at 146 RPM. Next, cells were washed and treated in duplicates with biotinylated exemplary miniproteins pre-complexed with streptavidin-AF647 for 1 h at 37° C., and 5% C02 with continuous orbital shaking. Following incubation, cells were washed three times with 1×PBS and lysed with RIPA buffer containing protease and phosphatase inhibitor cocktail and a universal nuclease for 30 minutes. Uptake was measured on 100 μL of lysates using a fluorimeter. Mean % uptake values of control miniprotein C306 in the presence of exemplary miniproteins are provided in TABLE 10A and summarized in FIG. 8.
Uptake of engineered Nectin-4 miniproteins with further modified lysine residues (C298-C304, as described in Example 4B) was evaluated. Percent uptake of these exemplary Nectin-4-targeting miniproteins and C251 were determined against a control miniprotein, C306, using opossum kidney proximal tubule cells as described in Example 18A. Percent uptake of C298, which has an unmodified lysine (K) at amino acid position 26 (along the length of the miniprotein sequence. SEQ ID NO: 162), was 37% in the presence of […]. All other miniproteins having a modified lysine (modified with one or more small alkyl groups of monomethyl, dimethyl, trimethyl, or isopropyl group) had (i) kidney uptake similar to that of C251 and (ii) reduced uptake as compared to C298, which has an unmodified lysine at position 26.

[2] = opossum kidney proximal tubule cells

Row | Compound | half-life (in vivo) [min] | % Uptake of C306 [1, 2] [%] | other results
1 | {DOTA-PEG4}-CEYDEEFFTALKRLRGGDICYYIQAKFQYLPKLCIEEILDNLGCS-OH (disulfide 1-34, 20-44) [Compound C118] | 19.7 | – | –
2 | {DOTA-PEG4}-CEYDEEFFTALARLRGGDICQYIQAKFQYLPGQCIEEILDNLGCS-OH (disulfide 1-34, 20-44) [Compound C242] | 29.7 | – | –
3 | CC[C@H](C)[C@@H]1NC(=O)[C@H](Cc2ccc(O)cc2)NC(=O)[C@H](CC(=O)O)NC(=O)[C@@H]2CSSC[C@@H](C(=O)N[C@@H](CO)C(=O)O)NC(=O)CNC(=O)[C@H](CC(C)C)NC(=O)[C@H](CC(N)=O)NC(=O)[C@H](CC(=O)O)NC(=O)[C@H](CC(C)C)NC(=O)[C@H]([C@@H](C)CC)NC(=O)[C@H](CCC(=O)O)NC(=O)[C@H](CCC(=O)O)NC(=O)[C@H]([C@@H](C)CC)NC(=O)[C@H](CSSC[C@H](NC(=O)CCOCCOCCOCCOCCNC(=O)CN3CCN(CC(=O)O)CCN(CC(=O)O)CCN(CC(=O)O)CC3)C(=O)N[C@@H](CCC(=O)O)C(=O)N[C@@H](Cc3ccc(O)cc3)C(=O)N[C@@H](CC(=O)O)C(=O)N[C@@H](CCC(=O)O)C(=O)N[C@@H](CCC(N)=O)C(=O)N[C@@H](Cc3ccccc3)C(=O)N[C@@H](Cc3ccccc3)C(=O)N[C@@H]([C@@H](C)O)C(=O)N[C@@H](C)C(=O)N[C@@H](CC(C)C)C(=O)N[C@@H](CCCCN)C(=O)N[C@@H](CCCNC(=N)N)C(=O)N[C@@H](CC(C)C)C(=O)N[C@@H](CCCNC(=N)N)C(=O)NCC(=O)N[C@@H](CC(=O)O)C(=O)N[C@@H](CC(=O)O)C(=O)N[C@@H]([C@@H](C)CC)C(=O)N2)NC(=O)[C@H](CC(C)C)NC(=O)CNC(=O)[C@@H]2CCCN2C(=O)[C@H](CC(C)C)NC(=O)[C@H](Cc2ccc(O)cc2)NC(=O)[C@H](CCC(N)=O)NC(=O)[C@H](Cc2ccccc2)NC(=O)[C@H](CO)NC(=O)[C@H](C)NC(=O)[C@H](CCC(N)=O)NC1=O [Compound C237] | 28.4 | – | –
4 | CC[C@H](C)[C@@H]1NC(=O)[C@H](Cc2ccc(O)cc2)NC(=O)[C@H](CCC(N)=O)NC(=O)[C@@H]2CSSC[C@@H](C(=O)N[C@@H](CO)C(=O)O)NC(=O)CNC(=O)[C@H](CC(C)C)NC(=O)[C@H](CC(N)=O)NC(=O)[C@H](CC(=O)O)NC(=O)[C@H](CC(C)C)NC(=O)[C@H]([C@@H](C)CC)NC(=O)[C@H](CCC(=O)O)NC(=O)[C@H](CCC(=O)O)NC(=O)[C@H]([C@@H](C)CC)NC(=O)[C@H](CSSC[C@H](NC(=O)CCOCCOCCOCCOCCNC(=O)CCCC[C@@H]3SC[C@@H]4NC(=O)N[C@@H]43)C(=O)N[C@@H](CCC(=O)O)C(=O)N[C@@H](Cc3ccc(O)cc3)C(=O)N[C@@H](CC(=O)O)C(=O)N[C@@H](CCC(=O)O)C(=O)N[C@@H](CCC(=O)O)C(=O)N[C@@H](Cc3ccccc3)C(=O)N[C@@H](Cc3ccccc3)C(=O)N[C@@H]([C@@H](C)O)C(=O)N[C@@H](C)C(=O)N[C@@H](CC(C)C)C(=O)N[C@@H](C)C(=O)N[C@@H](CCCNC(=N)N)C(=O)N[C@@H](CC(C)C)C(=O)N[C@@H](CCCNC(=N)N)C(=O)NCC(=O)NCC(=O)N[C@@H](CC(=O)O)C(=O)N[C@@H]([C@@H](C)CC)C(=O)N2)NC(=O)[C@H](CC(C)C)NC(=O)[C@H](C)NC(=O)[C@@H]2CCCN2C(=O)[C@H](CC(C)C)NC(=O)[C@H](Cc2ccc(O)cc2)NC(=O)[C@H](CCC(N)=O)NC(=O)[C@H](Cc2ccccc2)NC(=O)[C@H](CCCCNC(C)C)NC(=O)[C@H](C)NC(=O)[C@H](CCC(N)=O)NC1=O [Compound C301] | – | 3 | –
5 | {Biotin-PEG4}-CEYDEQFFTALARLRGGDICEYIQARFQYLPGLCIEEILDNLGCS-OH (disulfide 1-34, 20-44) [Compound C264] | – | – | % Uptake of C306 (Control) ([1]; 1 h at 37° C.): 0.859%
6 | C257: exemplary Nectin-4 miniprotein compound ({Biotin-PEG4″}-CDYDEQFFTALKRLRGADICEYIQA[Lys(Me3)]FQYLPGECIEEILDNLGCS-OH; disulfide 1-34, 20-44) [Compound C257] | – | – | % Uptake of C306 (Control) ([1]; 1 h at 37° C.): 7.99%
7 | CC[C@H](C)[C@@H]1NC(=O)[C@H](Cc2ccc(O)cc2)NC(=O)[C@H](CCC(N)=O)NC(=O)[C@@H]2CSSC[C@@H](C(=O)N[C@@H](CO)C(=O)O)NC(=O)CNC(=O)[C@H](CC(C)C)NC(=O)[C@H](CC(N)=O)NC(=O)[C@H](CC(=O)O)NC(=O)[C@H](CC(C)C)NC(=O)[C@H]([C@@H](C)CC)NC(=O)[C@H](CCC(=O)O)NC(=O)[C@H](CCC(=O)O)NC(=O)[C@H]([C@@H](C)CC)NC(=O)[C@H](CSSC[C@H](NC(=O)CCOCCOCCOCCOCCNC(=O)CCCC[C@@H]3SC[C@@H]4NC(=O)N[C@@H]43)C(=O)N[C@@H](CCC(=O)O)C(=O)N[C@@H](Cc3ccc(O)cc3)C(=O)N[C@@H](CC(=O)O)C(=O)N[C@@H](CCC(=O)O)C(=O)N[C@@H](CCC(=O)O)C(=O)N[C@@H](Cc3ccccc3)C(=O)N[C@@H](Cc3ccccc3)C(=O)N[C@@H]([C@@H](C)O)C(=O)N[C@@H](C)C(=O)N[C@@H](CC(C)C)C(=O)N[C@@H](C)C(=O)N[C@@H](CCCNC(=N)N)C(=O)N[C@@H](CC(C)C)C(=O)N[C@@H](CCCNC(=N)N)C(=O)NCC(=O)NCC(=O)N[C@@H](CC(=O)O)C(=O)N[C@@H]([C@@H](C)CC)C(=O)N2)NC(=O)[C@H](CC(C)C)NC(=O)[C@H](C)NC(=O)[C@@H]2CCCN2C(=O)[C@H](CC(C)C)NC(=O)[C@H](Cc2ccc(O)cc2)NC(=O)[C@H](CCC(N)=O)NC(=O)[C@H](Cc2ccccc2)NC(=O)[C@H](CCCCN)NC(=O)[C@H](C)NC(=O)[C@H](CCC(N)=O)NC1=O [Compound C298] | – | 37 | Percent uptake of control miniprotein C306 in the presence of exemplary miniprotein ([1]; opossum kidney proximal tubule cells, 1 h at 37° C.): 37%
8 | {Biotin-PEG4}-CEYDEEFFTAL[Lys(Me2)]RLRGGDICQYIQA[Lys(Me3)]FQYLPALCIEEILDNLGCS-OH (disulfide 1-34, 20-44) [Compound C303] | – | 3 | –
9 | CC[C@H](C)[C@@H]1NC(=O)[C@H](Cc2ccc(O)cc2)NC(=O)[C@H](CCC(N)=O)NC(=O)[C@@H]2CSSC[C@@H](C(=O)N[C@@H](CO)C(=O)O)NC(=O)CNC(=O)[C@H](CC(C)C)NC(=O)[C@H](CC(N)=O)NC(=O)[C@H](CC(=O)O)NC(=O)[C@H](CC(C)C)NC(=O)[C@H]([C@@H](C)CC)NC(=O)[C@H](CCC(=O)O)NC(=O)[C@H](CCC(=O)O)NC(=O)[C@H]([C@@H](C)CC)NC(=O)[C@H](CSSC[C@H](NC(=O)CCOCCOCCOCCOCCNC(=O)CCCC[C@@H]3SC[C@@H]4NC(=O)N[C@@H]43)C(=O)N[C@@H](CCC(=O)O)C(=O)N[C@@H](Cc3ccc(O)cc3)C(=O)N[C@@H](CC(=O)O)C(=O)N[C@@H](CCC(=O)O)C(=O)N[C@@H](CCC(=O)O)C(=O)N[C@@H](Cc3ccccc3)C(=O)N[C@@H](Cc3ccccc3)C(=O)N[C@@H]([C@@H](C)O)C(=O)N[C@@H](C)C(=O)N[C@@H](CC(C)C)C(=O)N[C@@H](C)C(=O)N[C@@H](CCCNC(=N)N)C(=O)N[C@@H](CC(C)C)C(=O)N[C@@H](CCCNC(=N)N)C(=O)NCC(=O)NCC(=O)N[C@@H](CC(=O)O)C(=O)N[C@@H]([C@@H](C)CC)C(=O)N2)NC(=O)[C@H](CC(C)C)NC(=O)[C@H](C)NC(=O)[C@@H]2CCCN2C(=O)[C@H](CC(C)C)NC(=O)[C@H](Cc2ccc(O)cc2)NC(=O)[C@H](CCC(N)=O)NC(=O)[C@H](Cc2ccccc2)NC(=O)[C@H](CCCCNC)NC(=O)[C@H](C)NC(=O)[C@H](CCC(N)=O)NC1=O [Compound C299] | – | 3 | –
10 | {Biotin-PEG4}-CEYDEEFFTAL[Lys(iPr)]RLRGGDICQYIQA[Lys(Me3)]FQYLPALCIEEILDNLGCS-OH (disulfide 1-34, 20-44) [Compound C304] | – | 2 | –
